Assay results: ChEMBL document CHEMBL4002544, “Design, synthesis and cytotoxic activity of certain novel chalcone analogous compounds” (Eur J Med Chem, 2017)
pIC50: −log10 of the molar value.

How the values were obtained:
[1] = test system: MCF7; test: Antiproliferative activity against human MCF7 cells after 48 hrs by SRB assay; format: functional, cell-based; details: MCF7, 48 h
[2] = test system: HepG2; test: Antiproliferative activity against human HepG2 cells after 48 hrs by SRB assay; format: functional, cell-based; details: HepG2, 48 h
[3] = Cytotoxicity against mouse AML-12 cells by MTT assay; format: cell-based; details: AML12
[4] = Cytotoxicity against human Hs 371.T cells by MTT assay; format: cell-based
[5] = Selectivity ratio of IC50 for human Hs 371.T cells to IC50 for human MCF7 cells
[6] = Selectivity ratio of IC50 for mouse AML-12 cells to IC50 for human HepG2 cells
[7] = target: Tubulin beta-5 chain (Homo sapiens) (UniProt P07437); test: Inhibition of tubulin beta polymerization in human MCF7 cells after 18 to 24 hrs by spectrophotometric method relative to control; format: cell-based; set-up: concentration or dose not given beside the values; details: concentration not given here
[8] = target: Tubulin beta-5 chain (Homo sapiens) (UniProt P07437); test: Inhibition of tubulin beta polymerization in human HepG2 cells after 18 to 24 hrs by spectrophotometric method relative to control; format: cell-based; set-up: concentration or dose not given beside the values; details: concentration not given here
[9] = test system: MCF7; test: Potency index, ratio of colchicine IC50 to compound IC50 for human MCF7 cells; format: functional

Sequence of Tubulin beta-5 chain (Homo sapiens) (P07437 whole entry): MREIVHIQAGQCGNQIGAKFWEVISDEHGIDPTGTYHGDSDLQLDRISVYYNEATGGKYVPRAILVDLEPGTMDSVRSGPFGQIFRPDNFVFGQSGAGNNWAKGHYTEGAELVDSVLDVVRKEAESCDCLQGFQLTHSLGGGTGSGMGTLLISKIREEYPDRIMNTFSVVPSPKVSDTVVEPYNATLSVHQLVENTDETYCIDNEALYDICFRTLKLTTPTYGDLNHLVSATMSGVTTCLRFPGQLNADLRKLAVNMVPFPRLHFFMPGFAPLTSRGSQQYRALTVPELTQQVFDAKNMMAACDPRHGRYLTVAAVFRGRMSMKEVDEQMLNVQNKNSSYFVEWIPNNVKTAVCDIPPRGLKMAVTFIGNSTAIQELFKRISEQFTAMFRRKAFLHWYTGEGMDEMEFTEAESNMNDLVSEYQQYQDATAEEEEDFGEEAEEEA

Row | SMILES | pIC50 [1] | pIC50 [2] | inhibition [7] [%] | inhibition [8] [%] | pIC50 [3] | pIC50 [4] | Ratio IC50 [5] | Ratio IC50 [6] | Ratio IC50 [9]
1 | COc1ccc(C2=NN(c3ccccc3)C(c3ccc(OC)cc3)C2O)cc1 (stereo unspecified) | 7.72 | 7.99 | – | – | – | – | – | – | –
2 | COc1cc2c(c(OC)c1OC)-c1ccc(OC)c(=O)cc1[C@@H](NC(C)=O)CC2 [COLCHICINE] | 6.82 | 6.91 | – | – | 6.86 | 6.35 | – | – | –
3 | COc1cccc(C2=NN(c3ccccc3)C(c3ccc(Cl)cc3)C2O)c1 (stereo unspecified) | 8.01 | 7.96 | 92.3 | 93 | 7.13 | 7.06 | 2.5 - 9 | 2.5 - 9 | –
4 | COc1cccc(C(=O)C2OC2c2ccc(F)cc2)c1 (stereo unspecified) | 7.85 | 7.77 | 88.4 | – | – | – | – | – | 10
5 | COc1cc(C2=CC(c3ccc(Cl)cc3)NC(=S)N2)cc(OC)c1OC (stereo unspecified) | 6.92 | 7.96 | – | 92.4 | 7.05 | – | – | 2.5 - 9 | 2
6 | COc1cccc(C(=O)C2SC2c2ccc(Br)cc2)c1 (stereo unspecified) | 7.64 | 7.96 | – | 85.7 | – | – | – | – | –
7 | COc1ccc(C2=NN(c3ccccc3)C(c3ccc(F)cc3)C2O)cc1 (stereo unspecified) | 7.80 | 7.89 | – | – | – | – | – | – | –
8 | COc1cccc(C2=NN(c3ccccc3)C(c3ccc(Br)cc3)C2O)c1 (stereo unspecified) | 7.96 | 8.00 | 87.8 | 84.6 | 7.57 | 6.32 | 2.5 - 9 | 2.5 - 9 | –
9 | COc1cccc(C(=O)C2SC2c2ccc(Cl)cc2)c1 (stereo unspecified) | 7.82 | 7.89 | 89.3 | 88.6 | – | – | – | – | –

Further compounds by rising pIC50 [1], results first:

Row | pIC50 [1] | pIC50 [2] | inhibition [7] [%] | inhibition [8] [%] | SMILES | pIC50 [3] | pIC50 [4] | Ratio IC50 [5] | Ratio IC50 [6] | Ratio IC50 [9]
10 | 6.82 | 7.27 | – | 90.6 | COc1cccc(C2=CC(c3ccc(Cl)cc3)NC(=S)N2)c1 (stereo unspecified) | – | – | – | – | 2
11 | 6.87 | 7.47 | – | – | COc1cccc(C2=CC(c3ccc(Br)cc3)NC(=S)N2)c1 (stereo unspecified) | – | – | – | – | 2
12 | 6.90 | 7.52 | – | 91.4 | COc1ccc(C2=CC(c3ccc(Br)cc3)NC(=S)N2)cc1 (stereo unspecified) | – | – | – | – | 2
13 | 6.90 | 7.21 | – | – | COc1cc(C2=CC(c3ccc(F)cc3)NC(=S)N2)cc(OC)c1OC (stereo unspecified) | – | – | – | – | 2
14 | 6.99 | 7.05 | – | – | COc1ccc(C2C=C(c3cc(OC)c(OC)c(OC)c3)NC(=S)N2)cc1 (stereo unspecified) | – | – | – | – | 2
15 | 7.11 | 8.02 | – | 92.8 | COc1cc(C2=CC(c3ccc(Br)cc3)NC(=S)N2)cc(OC)c1OC (stereo unspecified) | 7.23 | – | – | 2.5 - 9 | 2
16 | 7.31 | 7.45 | – | – | COc1cccc(C2=NNC(c3ccc(Cl)cc3)C2O)c1 (stereo unspecified) | – | – | – | – | –
17 | 7.31 | 7.37 | – | – | COc1cccc(C2=NNC(c3ccc(Br)cc3)C2O)c1 (stereo unspecified) | – | – | – | – | –
18 | 7.59 | 7.82 | – | – | COc1ccc(C(=O)C2OC2c2ccc(Cl)cc2)cc1 (stereo unspecified) | – | – | – | – | –
19 | 8.00 | 7.43 | 92.2 | 88.5 | COc1cccc(C(=O)C(O)C(Nc2ccc(F)c(Cl)c2)c2ccc(Br)cc2)c1 (stereo unspecified) | – | 7.04 | 2.5 - 9 | – | –
